# Experimental data published in patent publication US4056631A, “Method of combatting ticks” (Showa Denko K.K., priority 1973, dated 1977).
# Key:
# [1] = tested on: Haemaphysalis longicornis; test: Test 2: killing of tick larvae of Haemaphysalis longicornis (immersion in emulsified aqueous solution); format: in vivo; details: immersed 2 to 5 minutes, 25° C. for 24 hours, read-out: Combatting Effect of Larvae of Haemaphysalis longicornis (mortality of unfed larvae)
# Protocol: (§1) Groups of 50 to 100 larvae of Boophilus microplus and Haemaphysalis longicornis of about two weeks old placed in paper packets were immeresed for 2 to 5 minutes in an emulsified aqueous solution of the test compounds of a concentration of 100 ppm, and the larvae were incubated at 25° C. for 24 hours according to the procedure described by Stone and Haydock (1962), and the rate of the larvae killed were determined. Each figure indicates mortality of unfed larvae after treatment with the test compounds.
# Boophilus microplus [2] = test: Test 1: inhibition of oviposition by Boophilus microplus (acetone solution dropped on back of blood-fed females); details: Rhipicephalus microplus, topical, 336 h, read-out: Inhibition Ratio of Oviposition by Boophilus microplus
# Excerpt: (§3) One each of the adults of female Boophilus microplus or Haemaphysalis longicornis which had been allowed to suck blood fully was placed in a flat bottom test tube having a diameter of 10 millimeters and a depth of 35 millimeters. After rendering the chemicals to be tested into acetone solutions, the solutions were dropped to the back of the ticks in an amount corresponding to 110 gamma per one gram of body weight, using a micro syringe after which the acetone was evaporated. The test tube was then transferred to a desiccator containing a small portion of water where it was left standing at a constant temperature of 30° C., and the ticks were allowed to oviposit. Two weeks later, the amount of eggs laid per 1 gram of body weight was counted. Using this value and the amount of eggs laid in the case of the control group not treated with the chemicals, the rate of inhibition of oviposition was obtained as follows: [formula] where A is the number of eggs laid per gram of body weight of ticks of the group not treated with chemicals,
# (§4) B is the number of eggs laid per gram of body weight of ticks of the group treated with chemicals.
# (§5) The foregoing ratio was used to indicate the effectiveness of the chemicals tested.
# Boophilus microplus [3] = test: Test 2: killing of tick larvae of Boophilus microplus (immersion in emulsified aqueous solution); format: in vivo; details: Rhipicephalus microplus, immersed 2 to 5 minutes, 25° C. for 24 hours, read-out: Combatting Effect of Larvae of Boophilus microplus (mortality of unfed larvae)
# Protocol: as §1
# [4] = tested on: Haemaphysalis longicornis; test: Test 1: inhibition of oviposition by Haemaphysalis longicornis (acetone solution dropped on back of blood-fed females); details: topical, 336 h, read-out: Inhibition Ratio of Oviposition by Haemaphysalis longicornis
# Excerpt: as §3, §4, §5
# [5] = Test 4: acute oral toxicity in mice; parameters: species or system mice (male albino, strain ddY); details: mouse, in vivo, single dose, observed for a week
# Protocol: Acute oral toxicity was determined by using male albino mice strain ddY, 5 weeks old. The test compounds were administered orally once and the LD50 values were calculated after observing for a week.
# Boophilus microplus [6] = test: Test 3: inhibiting oviposition by Boophilus microplus (spray of diluted Recipe 1 emulsion); format: in vivo; details: relative to water-sprayed control, two weeks, 30° C.
# Protocol: (§2) An emulsion was prepared in accordance with the foregoing Recipe 1, using as its active ingredient the compound No. 12. Several classes of spraying liquids having the concentrations indicated in Table 3 were prepared by diluting this emulsion with water. Ten female Boophilus microplus which had sucked blood fully were placed on a filter paper, and the liquid described above was sprayed onto the ticks with a glass sprayer in an amount such that the liquid would flow down the backs of the ticks. The ticks were then immediately transferred to a wet filter paper disposed in a Petri dish, and when the liquid on the backs of the ticks became somewhat dried, the dish was covered. The Petri dish was then held at a constant temperature of 30° C. for two weeks, after which the total amount of eggs laid was counted. During the time the Petri dish was held at a constant temperature, the inside of the Petri dish was maintained in a state of high humidity by dropping a small amount of water onto the filter paper daily. The effectiveness was judged by the rate of eggs laid by the several treated groups relative to the total eggs laid in the case of the ticks of the control group, which had been sprayed with only water. On the other hand, the effectiveness in killing the female adults was judged by observation of the presence or absence of deaths. The case where the presence of deaths was observed is indicated with the symbol (+), and the case where there were no deaths is indicated with the symbol (-).
# Boophilus microplus [7] = test: Test 3: killing adults of Boophilus microplus (spray of diluted Recipe 1 emulsion); format: in vivo; parameters: key: (+): presence of deaths was observed; (-): there were no deaths; details: female adults
# Protocol: as §2
# mice = details: heretofore known tickicide; cited from earlier work
# [8] = concentration of compound 0.003%
# [9] = concentration of compound 0.01%
# [10] = concentration of compound 0.03%
smiles,measurement,setting,value
"CCN=C=NC(C)(C)c1ccccc1 [Compound 1, N-ethyl-N'-(2-phenyl-2-propyl)carbodiimide]",mortality at 100 ppm,[1],98%
"CCCN=C=NC(C)(C)c1ccccc1 [Compound 2, N-n-propyl-N'-(2-phenyl-2-propyl)carbodiimide]",pest or weed control at 110 µg/g,Boophilus microplus [2],100%
"CC(C)N=C=NC(C)(C)c1ccccc1 [Compound 3, N-iso-propyl-N'-(2-phenyl-2-propyl) carbodiimide]",mortality at 100 ppm,Boophilus microplus [3],96.4%
"CC(C)(C)N=C=NC(C)(C)c1ccccc1 [Compound 4, N-tert-butyl-N'-(2-phenyl-2-propyl)carbodiimide]",mortality at 100 ppm,[1],80.3%
"CCCCCN=C=NC(C)(C)c1ccccc1 [Compound 5, N-n-pentyl-N'-(2-phenyl-2-propyl)carbodiimide]",mortality at 100 ppm,[1],100%
same,pest or weed control at 110 µg/g,[4],100%
"CCCCCCN=C=NC(C)(C)c1ccccc1 [Compound 6, N-n-hexyl-N'-(2-phenyl-2-propyl)carbodiimide]",LD50 at 168 h,[5],2000 mg/kg
same,mortality at 100 ppm,Boophilus microplus [3],74.6%
same,pest or weed control at 110 µg/g,Boophilus microplus [2],96.3%
same,pest or weed control at 110 µg/g,[4],100%
"CCCCCCCN=C=NC(C)(C)c1ccccc1 [Compound 7, N-n-heptyl-N'-(2-phenyl-2-propyl)carbodiimide]",pest or weed control at 110 µg/g,Boophilus microplus [2],100%
same,pest or weed control at 110 µg/g,[4],100%
"CCCCCCCCN=C=NC(C)(C)c1ccccc1 [Compound 8, N-n-octyl-N'-(2-phenyl-2-propyl)carbodiimide]",LD50 at 168 h,[5],6000 mg/kg
same,mortality at 100 ppm,Boophilus microplus [3],68.5%
same,pest or weed control at 110 µg/g,Boophilus microplus [2],100%
same,pest or weed control at 110 µg/g,[4],100%
"CCCCC(CC)CN=C=NC(C)(C)c1ccccc1 (centres unmarked) [Compound 9, N-(2-ethyl-n-hexyl)-N'-(2-phenyl-2-propyl)carbodiimide]",mortality at 100 ppm,[1],100%
same,LD50 at 168 h,[5],7000 mg/kg
same,pest or weed control at 110 µg/g,[4],100%
"CCCCCCCCCN=C=NC(C)(C)c1ccccc1 [Compound 10, N-n-nonyl-N'-(2-phenyl-2-propyl)carbodiimide]",pest or weed control at 110 µg/g,Boophilus microplus [2],100%
same,pest or weed control at 110 µg/g,[4],100%
"CCCCCCCCCCN=C=NC(C)(C)c1ccccc1 [Compound 11, N-n-decyl-N'-(2-phenyl-2-propyl)carbodiimide]",pest or weed control at 110 µg/g,Boophilus microplus [2],93.1%
same,pest or weed control at 110 µg/g,[4],100%
"CCCCCCCCCCCCN=C=NC(C)(C)c1ccccc1 [Compound 12, N-n-dodecyl-N'-(2-phenyl-2-propyl)carbodiimide]",mortality at 100 ppm,[1],82.2%
same,LD50 at 168 h,[5],> 16000 mg/kg
same,Rate of Eggs Laid,Boophilus microplus [6]; [8],94.8%
same,Rate of Eggs Laid,Boophilus microplus [6]; [9],85.5%
same,Rate of Eggs Laid,Boophilus microplus [6]; [10],62.6%
same,Rate of Eggs Laid,Boophilus microplus [6]; concentration of compound 0.1%,0%
same,Rate of Eggs Laid,Boophilus microplus [6]; concentration of compound 0.3%,0%
same,Rate of Eggs Laid,Boophilus microplus [6]; concentration of compound 1%,0%
same,mortality at 100 ppm,Boophilus microplus [3],86.5%
same,Effectiveness in Killing Adults,Boophilus microplus [7]; [8],(-)
same,Effectiveness in Killing Adults,Boophilus microplus [7]; [9],(-)
same,Effectiveness in Killing Adults,Boophilus microplus [7]; [10],(-)
same,Effectiveness in Killing Adults,Boophilus microplus [7]; concentration of compound 0.1%,(+)
same,Effectiveness in Killing Adults,Boophilus microplus [7]; concentration of compound 0.3%,(+)
same,Effectiveness in Killing Adults,Boophilus microplus [7]; concentration of compound 1%,(+)
same,pest or weed control at 110 µg/g,Boophilus microplus [2],100%
same,pest or weed control at 110 µg/g,[4],100%
"CCCCCCCCCCCCCCN=C=NC(C)(C)c1ccccc1 [Compound 13, N-n-myristyl-N'-(2-phenyl-2-propyl)carbodiimide]",mortality at 100 ppm,Boophilus microplus [3],92.8%
same,pest or weed control at 110 µg/g,Boophilus microplus [2],85%
same,pest or weed control at 110 µg/g,[4],100%
"CCCCCCCCCCCCCCCCN=C=NC(C)(C)c1ccccc1 [Compound 14, N-n-cetyl-N'-(2-phenyl-2-propyl)carbodiimide]",mortality at 100 ppm,[1],80.3%
same,pest or weed control at 110 µg/g,[4],96.6%
"CCCCCCCCCCCCCCCCCCN=C=NC(C)(C)c1ccccc1 [Compound 15, N-n-stearyl-N'-(2-phenyl-2-propyl)carbodiimide]",pest or weed control at 110 µg/g,[4],98%
"CC(C)(N=C=NC1CCCCC1)c1ccccc1 [Compound 16, N-cyclohexyl-N'-(2-phenyl-2-propyl)carbodiimide]",LD50 at 168 h,[5],6000 mg/kg
same,mortality at 100 ppm,Boophilus microplus [3],100%
same,pest or weed control at 110 µg/g,Boophilus microplus [2],100%
"CC1CC(N=C=NC(C)(C)c2ccccc2)CC(C)(C)C1 (centres unmarked) [Compound 17, N-(3,3,5-trimethylcyclohexyl)-N'-(2-phenyl-2-propyl)carbodiimide]",mortality at 100 ppm,[1],100%
same,LD50 at 168 h,[5],11000 mg/kg
same,mortality at 100 ppm,Boophilus microplus [3],100%
same,pest or weed control at 110 µg/g,Boophilus microplus [2],100%
same,pest or weed control at 110 µg/g,[4],100%
"CC(C)(N=C=Nc1ccccc1)c1ccccc1 [Compound 18, N-phenyl-N'-(2-phenyl-2-propyl)carbodiimide]",mortality at 100 ppm,[1],100%
same,mortality at 100 ppm,Boophilus microplus [3],100%
"Cc1ccc(N=C=NC(C)(C)c2ccccc2)cc1 [Compound 19, N-p-tolyl-N'-(2-phenyl-2-propyl)carbodiimide]",mortality at 100 ppm,[1],86.6%
same,mortality at 100 ppm,Boophilus microplus [3],81.8%
"COc1ccc(N=C=NC(C)(C)c2ccccc2)cc1 [Compound 20, N-p-methoxyphenyl-N-'-(2-phenyl-2-propyl)carbodiimide]",mortality at 100 ppm,[1],96.4%
"COc1ccc(N=C=NC(C)(C)c2ccccc2)c(C)c1 [Compound 21, N-p-methoxy-o-tolyl-N'-(2-phenyl-2-propyl)carbodiimide]",mortality at 100 ppm,[1],100%
"CC(C)(N=C=Nc1ccc(Cl)c(Cl)c1)c1ccccc1 [Compound 22, N-3,4-dichlorophenyl-N'-(2-phenyl-2-propyl)carbodiimide]",mortality at 100 ppm,[1],82.5%
"CC(C)(N=C=NCc1ccccc1)c1ccccc1 [Compound 23, N-benzyl-N'-(2-phenyl-2-propyl)carbodiimide]",mortality at 100 ppm,[1],99.1%
same,mortality at 100 ppm,Boophilus microplus [3],100%
same,pest or weed control at 110 µg/g,Boophilus microplus [2],81.9%
"CC(N=C=NC(C)(C)c1ccccc1)c1ccccc1 (stereo not drawn) [Compound 24, N-α-phenylethyl-N'-(2-phenyl-2-propyl)carbodiimide]",mortality at 100 ppm,[1],99.1%
same,mortality at 100 ppm,Boophilus microplus [3],99.5%
same,pest or weed control at 110 µg/g,[4],100%
"CC(C)(N=C=NCCc1ccccc1)c1ccccc1 [Compound 25, N-β-phenylethyl-N'-(2-phenyl-2-propyl)carbodiimide]",mortality at 100 ppm,[1],100%
same,mortality at 100 ppm,Boophilus microplus [3],91.2%
same,pest or weed control at 110 µg/g,Boophilus microplus [2],100%
same,pest or weed control at 110 µg/g,[4],100%
"CC(C)(N=C=NCc1ccc(Cl)cc1)c1ccccc1 [Compound 26, N-p-chlorobenzyl-N'-(2-phenyl-2-propyl)carbodiimide]",mortality at 100 ppm,[1],86.4%
same,mortality at 100 ppm,Boophilus microplus [3],81.9%
"CC(C)(N=C=NCc1ccco1)c1ccccc1 [Compound 27, N-furfuryl-N'-(2-phenyl-2-propyl)carbodiimide]",mortality at 100 ppm,[1],91.1%
same,mortality at 100 ppm,Boophilus microplus [3],77.8%
"Cc1cc(Cl)ccc1N=CN(C)C [Control Chemical I, reference compound]",LD50 at 168 h,[5],160 mg/kg
same,pest or weed control at 110 µg/g,Boophilus microplus [2],78.2%
"CNC(=O)Oc1cccc2ccccc12 [Control Chemical II, reference compound]",pest or weed control at 110 µg/g,Boophilus microplus [2],27%
"CCOP(=S)(OCC)Oc1nc(Cl)c(Cl)cc1Cl [Control Chemical III, O,O-diethyl O-(3,5,6-trichloro-2-pyridyl)phosphorothioate, reference compound]",LD50 at 168 h,[5],70 mg/kg
same,LD50 for mice,mice,70 mg/kg
